Measured values taken from US9650395B2, “Antibacterial compounds and methods for use” (PTC Therapeutics, Inc., priority 2011, dated 2017).
In brackets after ≈: the same amount, converted by molar mass. Read-outs that look alike come from different tables or passages of the source.

Experiments:
[1] = tested on: super sensitive Gram-negative Escherichia coli (E. coli) BAS849; experiment: Antibacterial activity, microbroth dilution MIC, E. coli BAS849; format: cell-based; conditions: Escherichia coli, read-out: MIC, BAS849
[2] = tested on: control Gram-negative E. coli 25922 strain; experiment: Antibacterial activity, microbroth dilution MIC, E. coli 25922; format: cell-based, Escherichia coli; conditions: Escherichia coli; E. coli 25922, microbroth dilution; read-out: MIC, 25922
[3] = tested on: Gram-positive Staphylococcus aureus (S. aureus) 29213; experiment: Antibacterial activity, microbroth dilution MIC, S. aureus 29213; format: cell-based; conditions: Staphylococcus aureus; S. aureus 29213, microbroth dilution; read-out: MIC, 29213
[4] = tested on: quinolone resistant E. coli LZ3111; experiment: Antibacterial activity, MIC, quinolone resistant E. coli LZ3111; format: cell-based, Escherichia coli; conditions: Escherichia coli, read-out: MIC, LZ3111
Source text: (§1) The antibacterial activity from a microbroth dilution method may be presented as the minimum inhibitory concentration (MIC in […]). The MIC value is the lowest concentration of a drug which prevents macroscopically visible bacterial growth under test conditions.
Mutations in these regions are known to confer a high level resistance to the quinolone class of antibiotics.

[5] = tested on: E. coli ELZ4000 (MDR clinical isolate); experiment: Antibacterial activity, MIC, MDR E. coli ELZ4000; format: cell-based, Escherichia coli; conditions: Escherichia coli; E. coli ELZ4000, MDR clinical isolate; read-out: MIC ELZ4000
[6] = tested on: E. coli ELZ4251 (MDR clinical isolate); experiment: Antibacterial activity, MIC, MDR E. coli ELZ4251; format: cell-based, Escherichia coli; conditions: Escherichia coli, E. coli ELZ4251, MDR clinical isolate; read-out: MIC ELZ4251
[7] = tested on: Pseudomonas aeruginosa (P. aeruginosa) 27853; experiment: Antibacterial activity, MIC, P. aeruginosa 27853; format: cell-based; conditions: Pseudomonas aeruginosa, P. aeruginosa 27853; read-out: MIC 27853
Source text: as §1
Antibacterial activity of test compounds against the Gram-negative bacterium Pseudomonas aeruginosa (P. aeruginosa) 27853 is shown in Table 5.

[8] = E. coli BAS849, microbroth dilution

SMILES | MIC [1, 8] [µg/mL] | MIC [2] [µg/mL] | MIC [3] [µg/mL] | MIC [4] [µg/mL] | MIC [5] [µg/mL] | MIC [6] [µg/mL] | MIC [7] [µg/mL] | MIC [1] [µg/mL]
CCc1cc(C(=O)O)c(=O)[nH]c1-c1ccc(N(C)CCN(C)C)cc1 [Cpd 161, 6-(4-{[2-(dimethylamino)ethyl](methyl)amino}phenyl)-5-ethyl-2-oxo-1,2-dihydropyridine-3-carboxylic acid] | < 1 | 1 to 3.5 (≈ 2.91 to 10.2 µM) | 12.5 to 150 (≈ 36.4 to 437 µM) | 12.5 to 150 (≈ 36.4 to 437 µM) | 12.5 to 150 (≈ 36.4 to 437 µM) | 12.5 to 150 (≈ 36.4 to 437 µM) | – | –
CC(C)c1cc(C(=O)O)c(=O)[nH]c1-c1ccc(N2CCCC2)cc1 [Cpd 163, 5-isopropyl-2-oxo-6-[4-(pyrrolidin-1-yl)phenyl]-1,2-dihydropyridine-3-carboxylic acid] | < 1 | 3.5 to 12.5 (≈ 10.7 to 38.3 µM) | 12.5 to 150 (≈ 38.3 to 460 µM) | 12.5 to 150 (≈ 38.3 to 460 µM) | 12.5 to 150 (≈ 38.3 to 460 µM) | 12.5 to 150 (≈ 38.3 to 460 µM) | – | –
O=C(O)c1cc(C2CC2)c(-c2ccc(N3CCCC3)cc2)[nH]c1=O [Cpd 164, 5-cyclopropyl-2-oxo-6-[4-(pyrrolidin-1-yl)phenyl]-1,2-dihydropyridine-3-carboxylic acid] | < 1 | 1 to 3.5 (≈ 3.08 to 10.8 µM) | 3.5 to 12.5 (≈ 10.8 to 38.5 µM) | 12.5 to 150 (≈ 38.5 to 462 µM) | 12.5 to 150 (≈ 38.5 to 462 µM) | 12.5 to 150 (≈ 38.5 to 462 µM) | – | –
CCc1cc(C(=O)O)c(=O)[nH]c1-c1ccc(N2CCC(NCc3ccccc3)C2)cc1.Cl (stereo not shown) [Cpd 174, 6-{4-[3-(benzylamino)pyrrolidin-1-yl]phenyl}-5-ethyl-2-oxo-1,2-dihydropyridine-3-carboxylic acid hydrochloride] | < 1 | < 1 | 12.5 to 150 | 12.5 to 150 | 12.5 to 150 | 12.5 to 150 | 12.5 to 150 | –
CCc1cc(C(=O)O)c(=O)[nH]c1-c1ccc(N2CC3NCCOC3C2)cc1.Cl (stereo not shown) [Cpd 179, 5-ethyl-6-[4-(hexahydropyrrolo[3,4-b][1,4]oxazin-6(2H)-yl)phenyl]-2-oxo-1,2-dihydropyridine-3-carboxylic acid hydrochloride] | 1 to 3.5 | 3.5 to 12.5 | 12.5 to 150 | 12.5 to 150 | 12.5 to 150 | 12.5 to 150 | – | –
CCc1cc(C(=O)O)c(=O)[nH]c1-c1ccc(N2CCC(CN(C)Cc3ccccc3)C2)cc1.O=C(O)C(F)(F)F (stereo not shown) [Cpd 183, 6-[4-(3-{[benzyl(methyl)amino]methyl}pyrrolidin-1-yl)phenyl]-5-ethyl-2-oxo-1,2-dihydropyridine-3-carboxylic acid trifluoroacetate] | – | 3.5 to 12.5 | 12.5 to 150 | 12.5 to 150 | 12.5 to 150 | 12.5 to 150 | – | < 1
CCc1cc(C(=O)O)c(=O)[nH]c1-c1ccc(N2C[C@H]3CC[C@@H](N)[C@H]3C2)cc1.O=C(O)C(F)(F)F [Cpd 202, 6-{4-[(3aR,4R,6aS)-4-aminohexahydrocyclopenta[c]pyrrol-2(1H)-yl]phenyl}-5-ethyl-2-oxo-1,2-dihydropyridine-3-carboxylic acid trifluoroacetate] | – | 12.5 to 150 | 12.5 to 150 | 12.5 to 150 | 12.5 to 150 | 12.5 to 150 | 12.5 to 150 | 1 to 3.5
CCc1cc(C(=O)O)c(=O)[nH]c1-c1ccc(N2C[C@H]3CCC[C@H](N)[C@H]3C2)cc1.O=C(O)C(F)(F)F [Cpd 203, 6-{4-[(3aR,4S,7aS)-4-aminooctahydro-2H-isoindol-2-yl]phenyl}-5-ethyl-2-oxo-1,2-dihydropyridine-3-carboxylic acid trifluoroacetate] | – | 12.5 to 150 | 12.5 to 150 | 12.5 to 150 | 12.5 to 150 | 12.5 to 150 | 12.5 to 150 | 1 to 3.5
CCc1cc(C(=O)O)c(=O)[nH]c1-c1ccc(N2C[C@H]3CN(Cc4ccccc4)C[C@H]3C2)cc1.Cl [Cpd 206, 6-{4-[(3aR,6aS)-5-benzylhexahydropyrrolo[3,4-c]pyrrol-2(1H)-yl]phenyl}-5-ethyl-2-oxo-1,2-dihydropyridine-3-carboxylic acid hydrochloride] | 1 to 3.5 | 3.5 to 12.5 | 12.5 to 150 | 12.5 to 150 | 12.5 to 150 | 12.5 to 150 | – | –
CCc1cc(C(=O)O)c(=O)[nH]c1-c1ccc(N2C[C@H]3CN(C)C[C@H]3C2)cc1.Cl [Cpd 208, 5-ethyl-6-{4-[(3aR,6aS)-5-methylhexahydropyrrolo[3,4-c]pyrrol-2(1H)-yl]phenyl}-2-oxo-1,2-dihydropyridine-3-carboxylic acid hydrochloride] | 1 to 3.5 | 3.5 to 12.5 | 12.5 to 150 | 12.5 to 150 | 12.5 to 150 | 12.5 to 150 | – | –
CCc1cc(C(=O)O)c(=O)[nH]c1-c1ccc(CN2CCC(N(C)C)C2)n1C (stereo not shown) [Cpd 353, 6-(5-((3-(dimethylamino)pyrrolidin-1-yl)methyl)-1-methyl-1H-pyrrol-2-yl)-5-ethyl-2-oxo-1,2-dihydropyridine-3-carboxylic acid] | 12.5 to 150 (≈ 33.6 to 403 µM) | 12.5 to 150 (≈ 33.6 to 403 µM) | 12.5 to 150 (≈ 33.6 to 403 µM) | 12.5 to 150 (≈ 33.6 to 403 µM) | – | – | – | –
